Test results from patent publication US8546378B2, “5HT2C receptor modulator compositions and methods of use” (Arena Pharmaceuticals, Inc., priority 2004, dated 2013).

biological target: T1, human 5-HT2C receptor (Homo sapiens, UniProt P28335); assay: Intracellular IP3 Accumulation Assay; assay type: cell-based; conditions: HEK293 cells transfected with human 5-HT2C receptor; averages of at least two trials; read-out: 5-HT2C (EC50) IP Accumulation Assay
T1 construct: expressed in transfected cells; host or cells: HEK293
T1 sequence (P28335 33-458): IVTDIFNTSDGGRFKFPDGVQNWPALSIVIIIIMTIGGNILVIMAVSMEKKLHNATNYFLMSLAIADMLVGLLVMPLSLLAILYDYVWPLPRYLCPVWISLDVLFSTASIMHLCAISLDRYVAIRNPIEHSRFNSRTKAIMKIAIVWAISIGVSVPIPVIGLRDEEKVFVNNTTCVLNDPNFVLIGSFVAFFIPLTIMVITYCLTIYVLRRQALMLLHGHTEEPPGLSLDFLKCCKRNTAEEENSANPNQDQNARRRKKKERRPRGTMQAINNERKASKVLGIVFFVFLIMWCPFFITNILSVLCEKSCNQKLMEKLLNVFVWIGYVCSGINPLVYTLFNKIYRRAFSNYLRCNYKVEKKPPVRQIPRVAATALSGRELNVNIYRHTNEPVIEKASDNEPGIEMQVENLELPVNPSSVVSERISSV
Description: HEK293 cells were transfected in 15 cm sterile dishes with or without (control) 16 μg of human 5-HT2C receptor cDNA using 25 μl of lipofectamine. Cells were then incubated for 3-4 hours at 37° C./5% CO2 and then transfection media was removed and replaced with 100 μl of DMEM. Cells were then plated onto 100 cm sterile dishes. The next day cells were plated into 96 well PDL microtiter plates at a density of 55K/0.2 ml. Six hours latter, media was exchanged with [^3H]inositol (0.25 μCi/well) in inositol free DMEM and plates were incubated at 37° C./5% CO2 overnight. The next day, wells were aspirated and 200 μl of DMEM containing test compound, 10 μM pargyline, and 10 mM LiCl was added to appropriate wells. Plates were then incubated at 37° C./5% CO2 for three hours followed aspiration and by addition of fresh ice cold stop solution (1M KOH, 19 mM Na-borate, 3.8 mM EDTA) to each well. Plates were kept on ice for 5-10 min and the wells were neutralized by addition of 200 μl of fresh ice cold neutralization solution (7.5% HCl). Plates were then frozen until further processing is desired. The lysate was then transferred into 1.5 ml Eppendorf tubes and 1 ml of chloroform/methanol (1:2) was added/tube. The solution was vortexed for 15 seconds and the upper phase was applied to a Biorad AG1-X8™ anion exchange resin (100-200 mesh). First, the resin was washed with water at 1:1.25 W/V and 0.9 ml of upper phase was loaded onto the column. The column was then washed with 10 ml of 5 mM myo-inositol and 10 ml of 5 mM Na-borate/60 mM Na-formate. The inositol tris phosphates were eluted into scintillation vials containing 10 ml of scintillation cocktail with 2 ml of 0.1 M formic acid/1 M ammonium formate. The columns were regenerated by washing with 10 ml of 0.1 M formic acid/3M ammonium formate and rinsed twice with dd H2O and stored at 4° C. in water.

SMILES | EC50
C=CCOc1cc2c(cc1Br)C(C)CNCC2 (racemic) [Example 5, (R,S) 7-Allyloxy-8-bromo-1-methyl-2,3,4,5-tetrahydro-1H-3-benzazepine] | 12.1 nM
COc1cc2c(cc1Cl)C(C)CNCC2 (racemic) [Example 2, (R,S) 8-Chloro-7-methoxy-1-methyl-2,3,4,5-tetrahydro-1H-3-benzazepine] | 4.5 nM
CC1CNCCc2ccc(Br)cc21 (racemic) [Example 32, (R,S) 8-Bromo-1-methyl-2,3,4,5-tetrahydro-1H-3-benzazepine] | 2.1 nM
COc1cc2c(cc1Br)C(C)CNCC2 (racemic) [Example 1, (R,S) 8-Bromo-7-methoxy-1-methyl-2,3,4,5-tetrahydro-1H-3-benzazepine] | 4.2 nM
COc1cc2c(cc1I)C(C)CNCC2 (racemic) [Example 3, (R,S) 8-Iodo-7-methoxy-1-methyl-2,3,4,5-taetrhydro-1H-3-benzazepine] | 1.4 nM
CCC1CNCCc2cc(OC)c(Br)cc21 (racemic) [Example 19, (R,S) 8-Bromo-1-ethyl-7-methoxy-2,3,4,5-tetrahydro-1H-3-benzazepine] | 18 nM
CC1CNCCc2cc(O)c(Br)cc21 (racemic) [Example 4, (R,S) 8-Bromo-7-hydroxy-1-methyl-2,3,4,5-tetrahydro-1H-3-benzazepine] | 2.1 nM
C=CCOc1cc2c(cc1I)C(C)CNCC2 (racemic) [Example 12, (R,S) 7-Allyloxy-8-iodo-1-methyl-2,3,4,5-tetrahydro-1H-3-benzazepine] | 6.3 nM

test system: Sprague-Dawley (SD) rats; assay: Food intake in rats: selective 5HT-2C agonist alone, phentermine alone, or combination (Example 59); assay type: in vivo, rat; conditions: female SD rats; perorally; 2 h food intake; FIG. 3A; two-way ANOVA, Bonferroni p<0.01
Description: Female (weight 225-250 g) and male (weight 250-275 g) Sprague-Dawley (SD) rats were purchased from Harlan (San Diego, Calif.) and housed 4 per cage in a temperature controlled environment under a 17 h/7 h light/dark cycle (lights out at 10:00 am). Water and Chow was available (LabDiet 8604) ad libitum for two weeks. The animals were handled for 2 occasions during this time. On the morning of the study, the animals were individually housed with no food or bedding and dosed perorally with 1 ml/kg of compound or vehicle 30 minutes prior to lights out. At lights out, the animals were given a pre-weighed amount of chow and placed near the food bowl. Two hours later the remaining chow was weighed and the study concluded.

SMILES | effect on food intake in female rats
C[C@H]1CNCCc2ccc(Cl)cc21 [Compound B, (R)-8-chloro-1-methyl-2,3,4,5-tetrahydro-1H-3-benzazepine] | No other significant differences between groups
CC(C)(N)Cc1ccccc1 [phentermine, 1,1-Dimethyl-2-phenyl-ethylamine, reference compound] | No other significant differences between groups

same assay, conditions: male SD rats; perorally; 2 h food intake; FIG. 3B; two-way ANOVA, Bonferroni p<0.01

SMILES | effect on food intake in male rats
C[C@H]1CNCCc2ccc(Cl)cc21 [Compound B, (R)-8-chloro-1-methyl-2,3,4,5-tetrahydro-1H-3-benzazepine] | No other significant differences between groups
CC(C)(N)Cc1ccccc1 [phentermine, 1,1-Dimethyl-2-phenyl-ethylamine, reference compound] | No other significant differences between groups
